According to ChEMBL document CHEMBL1909046, “DrugMatrix in vitro pharmacology data”:

What was measured:
[1] = target: T1, Cysteinyl leukotriene receptor 1 (Homo sapiens, UniProt Q9Y271); assay type: cell membranes, CHO-K1, Membrane; conditions: cho-k1; note: in other assays of this panel Not Active means under 50% inhibition at 10 µM
T1 sequence (Q9Y271 whole entry): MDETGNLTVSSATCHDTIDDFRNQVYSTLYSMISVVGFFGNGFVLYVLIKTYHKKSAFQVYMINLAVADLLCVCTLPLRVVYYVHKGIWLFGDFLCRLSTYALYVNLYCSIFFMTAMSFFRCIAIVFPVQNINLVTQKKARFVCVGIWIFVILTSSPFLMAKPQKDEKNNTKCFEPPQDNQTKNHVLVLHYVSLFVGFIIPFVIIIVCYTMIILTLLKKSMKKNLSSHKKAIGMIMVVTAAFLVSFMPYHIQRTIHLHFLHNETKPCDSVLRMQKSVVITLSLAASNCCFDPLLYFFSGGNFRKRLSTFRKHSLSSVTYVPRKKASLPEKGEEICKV

D(4) dopamine receptor = target: T2, D(4) dopamine receptor (Homo sapiens, UniProt P21917); assay: DRUGMATRIX: Dopamine D4.2 radioligand binding (ligand: [3H] Spiperone); assay type: cell membranes, CHO-K1, Membrane; conditions: Not Active = under 50% inhibition at 10 µM
T2 sequence (P21917 whole entry): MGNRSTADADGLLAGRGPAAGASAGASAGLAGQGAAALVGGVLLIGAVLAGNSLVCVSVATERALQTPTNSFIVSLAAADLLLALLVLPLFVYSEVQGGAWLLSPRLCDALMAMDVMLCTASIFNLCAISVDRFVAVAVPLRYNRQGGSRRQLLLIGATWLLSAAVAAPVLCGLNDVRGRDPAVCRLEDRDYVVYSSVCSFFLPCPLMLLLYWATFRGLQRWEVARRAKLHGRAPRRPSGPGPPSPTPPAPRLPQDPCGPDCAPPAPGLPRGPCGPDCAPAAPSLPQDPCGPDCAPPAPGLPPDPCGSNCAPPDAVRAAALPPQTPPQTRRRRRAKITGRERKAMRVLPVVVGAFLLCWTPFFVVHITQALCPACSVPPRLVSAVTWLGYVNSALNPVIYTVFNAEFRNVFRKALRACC

[2] = DRUGMATRIX: Calcium Channel Type L, Benzothiazepine radioligand binding (ligand: [3H] Diltiazem); assay type: cell membranes, Rattus norvegicus, Wistar, Brain, Membrane; conditions: Not Active = under 50% inhibition at 10 µM
[3] = target: Aldo-keto reductase family 1 member B1 (Rattus norvegicus, UniProt P07943); assay: biochemical; assay type: tissue-based, Lens of camera-type eye;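 note: inhibition of aldose reductase enzyme activity, measured with DL-glyceraldehyde as the substrate; in other assays of this panel Not Active means under 50% inhibition at 10 µM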
[4] = target: Mitogen-activated protein kinase 1 (Homo sapiens, UniProt P28482); assay: DRUGMATRIX: Protein Serine/Threonine Kinase, ERK2 enzyme inhibition (substrate: Myelin Basic Protein); set-up: species or system Escherichia coli; conditions: Not Active = under 50% inhibition at 10 µM
[5] = DRUGMATRIX: Leukotriene, BLT (LTB4) radioligand binding (ligand: [3H]LTB4); assay type: cell membranes, Membrane; conditions: u-937, Not Active = under 50% inhibition at 10 µM

Chain of Mitogen-activated protein kinase 1 (P28482 whole entry): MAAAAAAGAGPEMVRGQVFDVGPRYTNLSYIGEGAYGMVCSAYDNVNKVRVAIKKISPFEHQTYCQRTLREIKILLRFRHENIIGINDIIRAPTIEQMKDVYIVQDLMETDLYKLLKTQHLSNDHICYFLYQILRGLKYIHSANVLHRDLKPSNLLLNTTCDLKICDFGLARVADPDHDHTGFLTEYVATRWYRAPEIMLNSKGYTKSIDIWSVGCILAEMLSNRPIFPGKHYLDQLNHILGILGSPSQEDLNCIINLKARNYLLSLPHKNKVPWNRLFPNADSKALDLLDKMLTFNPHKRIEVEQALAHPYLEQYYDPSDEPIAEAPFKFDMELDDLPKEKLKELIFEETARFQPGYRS

Compound	IC50 [1]	IC50 (D(4) dopamine receptor; cho-k1)	IC50 [2]	Ki [2]	IC50 [3]	IC50 [4]	IC50 [5]	Ki [5]	IC50 ([3]; read-out: IC50)	IC50 (D(4) dopamine receptor; read-out: IC50)	Ki (D(4) dopamine receptor; read-out: Ki)	IC50 ([5]; read-out: IC50)	Ki ([5]; read-out: Ki)	IC50 ([4]; read-out: IC50)	Ki [1]	Ki (D(4) dopamine receptor; cho-k1)	Ki [3]	Ki [4]	IC50 ([2]; read-out: IC50)	Ki ([2]; read-out: Ki)
CCOc1cc(N)c(Cl)cc1C(=O)NCC1CN(Cc2ccc(F)cc2)CCO1 (stereo unspecified) [MOSAPRIDE]	Not Active	Not Active	Not Active	Not Active	Not Active	Not Active	Not Active	Not Active	–	–	–	–	–	–	–	–	–	–	–	–
O=C(c1ccccc1)c1ccc2n1CCC2C(=O)O (stereo unspecified) [KETOROLAC]	Not Active	Not Active	Not Active	Not Active	–	Not Active	Not Active	Not Active	6.11 µM	–	–	–	–	–	–	–	–	–	–	–
Nc1nc(N)c2nc(-c3ccccc3)c(N)nc2n1	Not Active	Not Active	Not Active	Not Active	Not Active	Not Active	Not Active	Not Active	–	–	–	–	–	–	–	–	–	–	–	–
Oc1ccc(/C=C/c2cc(O)cc(O)c2)cc1 [RESVERATROL]	Not Active	Not Active	Not Active	Not Active	Not Active	Not Active	Not Active	Not Active	–	–	–	–	–	–	–	–	–	–	–	–
Cc1ccnc(NS(=O)(=O)c2ccc(N)cc2)n1 [SULFAMERAZINE]	Not Active	Not Active	Not Active	Not Active	Not Active	Not Active	Not Active	Not Active	–	–	–	–	–	–	–	–	–	–	–	–
CCN1CCCC1CNC(=O)c1cc(S(N)(=O)=O)ccc1OC (stereo unspecified) [SULPIRIDE]	Not Active	Not Active	Not Active	Not Active	Not Active	Not Active	Not Active	Not Active	–	–	–	–	–	–	–	–	–	–	–	–
O=C1CC[C@@]2(O)[C@H]3Cc4ccc(O)c5c4[C@@]2(CCN3CC2CC2)[C@H]1O5 [NALTREXONE]	Not Active	Not Active	Not Active	Not Active	Not Active	Not Active	Not Active	Not Active	–	–	–	–	–	–	–	–	–	–	–	–
CCN(CC)C(=S)SSC(=S)N(CC)CC	Not Active	–	Not Active	Not Active	Not Active	Not Active	–	–	–	3.15 µM	1.1 µM	29.9 µM	7.58 µM	–	–	–	–	–	–	–
O=C(OC[C@H]1O[C@@H](OC(=O)c2cc(O)c(O)c(OC(=O)c3cc(O)c(O)c(O)c3)c2)[C@H](OC(=O)c2cc(O)c(O)c(OC(=O)c3cc(O)c(O)c(O)c3)c2)[C@@H](OC(=O)c2cc(O)c(O)c(OC(=O)c3cc(O)c(O)c(O)c3)c2)[C@@H]1OC(=O)c1cc(O)c(O)c(OC(=O)c2cc(O)c(O)c(O)c2)c1)c1cc(O)c(O)c(OC(=O)c2cc(O)c(O)c(O)c2)c1 [TANNIC ACID]	Not Active	Not Active	Not Active	Not Active	–	–	Not Active	Not Active	0.346 µM	–	–	–	–	0.185 µM	–	–	–	–	–	–
C=CCc1ccc2c(c1)OCO2 [SAFROLE]	Not Active	Not Active	Not Active	Not Active	Not Active	Not Active	Not Active	Not Active	–	–	–	–	–	–	–	–	–	–	–	–
C#C[C@]1(O)CC[C@H]2[C@@H]3[C@H](C)CC4=C(CCC(=O)C4)[C@H]3CC[C@@]21C [TIBOLONE]	Not Active	Not Active	Not Active	Not Active	Not Active	Not Active	Not Active	Not Active	–	–	–	–	–	–	–	–	–	–	–	–
CC[C@@]1(O)C(=O)OCc2c1cc1n(c2=O)Cc2cc3c(CN(C)C)c(O)ccc3nc2-1 [TOPOTECAN]	Not Active	Not Active	Not Active	Not Active	Not Active	Not Active	Not Active	Not Active	–	–	–	–	–	–	–	–	–	–	–	–
CC1(C)[C@H](C(=O)O)N2C(=O)C[C@H]2S1(=O)=O [SULBACTAM]	Not Active	Not Active	Not Active	Not Active	Not Active	Not Active	Not Active	Not Active	–	–	–	–	–	–	–	–	–	–	–	–
CCN(CC)N=O [N-NITROSODIETHYLAMINE]	Not Active	Not Active	Not Active	Not Active	Not Active	Not Active	Not Active	Not Active	–	–	–	–	–	–	–	–	–	–	–	–
C[C@]12CCC(=O)C[C@@H]1CC[C@@H]1[C@@H]2CC[C@]2(C)[C@@H](O)CC[C@@H]12 [STANOLONE]	Not Active	Not Active	Not Active	Not Active	Not Active	Not Active	Not Active	Not Active	–	–	–	–	–	–	–	–	–	–	–	–
Cc1cccc(C)c1NC(=O)C(C)N (stereo unspecified) [TOCAINIDE]	Not Active	Not Active	Not Active	Not Active	Not Active	Not Active	Not Active	Not Active	–	–	–	–	–	–	–	–	–	–	–	–
LEAD(IV) ACETATE	Not Active	Not Active	Not Active	Not Active	Not Active	Not Active	Not Active	Not Active	–	–	–	–	–	–	Not Active	Not Active	Not Active	Not Active	–	–
CC#C[C@]1(O)CC[C@H]2[C@@H]3CCC4=CC(=O)CCC4=C3[C@@H](c3ccc(N(C)C)cc3)C[C@@]21C [MIFEPRISTONE]	Not Active	Not Active	–	–	Not Active	Not Active	Not Active	Not Active	–	–	–	–	–	–	–	–	–	–	29 µM	25.8 µM
CS(=O)(=O)c1ccc(C2=C(c3ccccc3)C(=O)OC2)cc1 [ROFECOXIB]	Not Active	Not Active	Not Active	Not Active	Not Active	Not Active	Not Active	Not Active	–	–	–	–	–	–	–	–	–	–	–	–
COC(=O)Nc1nc2ccc(C(=O)c3ccccc3)cc2[nH]1 [MEBENDAZOLE]	Not Active	Not Active	Not Active	Not Active	Not Active	Not Active	Not Active	Not Active	–	–	–	–	–	–	–	–	–	–	–	–
CC(O)C(=O)O (stereo unspecified) [LACTIC ACID]	Not Active	Not Active	Not Active	Not Active	Not Active	Not Active	Not Active	Not Active	–	–	–	–	–	–	–	–	–	–	–	–
CC(N)C12CC3CC(CC(C3)C1)C2 (stereo unspecified) [RIMANTADINE]	Not Active	Not Active	Not Active	Not Active	Not Active	Not Active	Not Active	Not Active	–	–	–	–	–	–	–	–	–	–	–	–
CN1C[C@H](CNC(=O)OCc2ccccc2)C[C@@H]2c3cccc4c3c(cn4C)C[C@H]21 [METERGOLINE]	Not Active	Not Active	–	–	Not Active	Not Active	Not Active	Not Active	–	–	–	–	–	–	–	–	–	–	0.268 µM	0.238 µM
Cc1cc2c(s1)Nc1ccccc1N=C2N1CCN(C)CC1 [OLANZAPINE]	Not Active	Not Active	–	–	Not Active	Not Active	–	–	–	–	–	–	–	–	–	–	–	–	–	–
CNCCCC12CCC(c3ccccc31)c1ccccc12 [MAPROTILINE]	Not Active	Not Active	–	–	Not Active	Not Active	–	–	–	–	–	–	–	–	–	–	–	–	–	–
CN(C)CCC=C1c2ccccc2COc2ccccc21 [DOXEPIN]	Not Active	Not Active	–	–	Not Active	Not Active	–	–	–	–	–	–	–	–	–	–	–	–	–	–
